Test results published in patent US10538555B2, “Macrocyclic inhibitors of the PD-1/PD-L1 and CD80(B7-1)/PD-L1 protein/protein interactions” (BRISTOL-MYERS SQUIBB COMPANY, priority 2014, dated 2020).
Where a SMILES comes first, the peptide text is derived from it. Bridges are numbered along the chain shown (N, C = ends). [ ]: non-standard residue; d: D form. ξ: configuration not given here. Phe(3,4-F2) = N[C@@H](Cc1ccc(F)c(F)c1)C(=O)O; Phe(4-F) = N[C@@H](Cc1ccc(F)cc1)C(=O)O; d(cisHyp) = O=C(O)[C@H]1C[C@@H](O)CN1; Hyp = O=C(O)[C@@H]1C[C@@H](O)CN1; NMeF = CN[C@@H](Cc1ccccc1)C(=O)O; NMehSer = CN[C@@H](CCO)C(=O)O; NMeNle = CCCC[C@H](NC)C(=O)O; Pip = O=C(O)[C@@H]1CCCCN1; dPip = O=C(O)[C@H]1CCCCN1; hSer = N[C@@H](CCO)C(=O)O; NMeA = CN[C@@H](C)C(=O)O; Orn = NCCC[C@H](N)C(=O)O; Dab = NCC[C@H](N)C(=O)O; ξC = NC(CS)C(=O)O; Sar = CNCC(=O)O

Biological target: T1, Human PD-L1/PD-1 (Homo sapiens, UniProt Q9NZQ7)
T1 construct: TVMV protease cleavage site (C); made in house; host or cells: HEK293T cells
Test: HTRF Human PD-L1/PD-1 binding assay (PD-1-Ig/PD-L1-His)
Settings: PD-L1-His 10 nM, PD-1-Ig 20 nM; class symbol; read-out: HTRF Human PD-L1/PD-1 Binding Assay IC50 Range
Summary of the method: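 Inhibitors were preincubated 15 min with human PD-L1(18-239)-His (10 nM final), then PD-1(25-167)-Ig (20 nM final) was added for 15 min in dPBS/0.1% BSA/0.05% Tween-20. Eu-cryptate anti-Ig (1 nM) and APC anti-His (20 nM) were added; 665/620 nm ratio read after 30 min.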

T1 sequence (Q9NZQ7 with tags, fused parts or gaps): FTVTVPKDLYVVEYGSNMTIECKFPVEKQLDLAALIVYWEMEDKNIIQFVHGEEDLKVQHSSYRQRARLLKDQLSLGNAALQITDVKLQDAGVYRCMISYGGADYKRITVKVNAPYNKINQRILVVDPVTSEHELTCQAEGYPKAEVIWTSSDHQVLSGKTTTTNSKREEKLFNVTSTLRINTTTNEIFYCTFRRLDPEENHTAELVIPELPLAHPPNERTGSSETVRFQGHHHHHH

SMILES | IC50
CCCC[C@H]1C(=O)N(C)[C@@H](CCCC)C(=O)N[C@@H](CCC(=O)O)C(=O)N[C@H](C(=O)NCC(N)=O)CSCC(=O)N[C@@H](Cc2ccc(O)cc2)C(=O)N2CCCC[C@H]2C(=O)N[C@@H](CC(=O)O)C(=O)N2CCC[C@H]2C(=O)N[C@@H](Cc2cnc[nH]2)C(=O)N[C@@H](CCC(=O)O)C(=O)N2C[C@H](O)C[C@H]2C(=O)N[C@@H](Cc2c[nH]c3ccccc23)C(=O)N[C@@H](CO)C(=O)N[C@@H](Cc2c[nH]c3ccccc23)C(=O)N1C [Example 1256] ({CH2CO}-Y[Pip]DPHE[Hyp]WSW[NMeNle][NMeNle]ECG-NH2; thioether N-14) | 1 to 9.9 nM
CCCC[C@H]1C(=O)N(C)[C@@H](CCCC)C(=O)N[C@@H](CCCNC(=N)N)C(=O)NC(C(=O)NCC(N)=O)CSCC(=O)N[C@@H](Cc2ccc(O)cc2)C(=O)N(C)[C@@H](C)C(=O)N[C@@H](CC(N)=O)C(=O)N2CCC[C@H]2C(=O)N[C@@H](CCO)C(=O)N[C@@H](CO)C(=O)N2CCC[C@H]2C(=O)N[C@@H](Cc2c[nH]c3ccccc23)C(=O)N[C@@H](CO)C(=O)N[C@@H](Cc2c[nH]c3ccccc23)C(=O)N1C (stereo partly drawn) [Example 10034] ({CH2CO}-Y[NMeA]NP[hSer]SPWSW[NMeNle][NMeNle]R[ξC]G-NH2; thioether N-14) | 1 to 9.9 nM
CCCC[C@H]1C(=O)N2CCC[C@@H]2C(=O)N[C@@H](CC(=O)O)C(=O)N[C@@H](C(C)C)C(=O)N(C)[C@@H](CCOC)C(=O)N[C@@H](Cc2ccc(O)cc2)C(=O)N2CCCC[C@@H]2C(=O)N[C@@H](Cc2c[nH]c3ccccc23)C(=O)N[C@@H](Cc2ccc(O)cc2)C(=O)N[C@@H](CC(C)C)C(=O)N[C@H](C(=O)NCC(N)=O)CSCC(=O)N[C@@H](Cc2ccc(F)cc2)C(=O)N(C)[C@@H](Cc2ccccc2)C(=O)N1C [Example 9220] ({CH2CO}-[Phe(4-F)][NMeF][NMeNle][dP]DV[NMehSer](Me)Y[dPip]WYLCG-NH2; thioether N-13) | 100 to 990 nM
CCCC[C@H]1C(=O)N2C[C@H](O)C[C@@H]2C(=O)N[C@@H](CC(=O)O)C(=O)N[C@@H](C(C)C)C(=O)N(C)[C@@H](Cc2ccccc2)C(=O)N[C@@H](CCN)C(=O)N2C[C@H](O)C[C@@H]2C(=O)N[C@@H](Cc2c[nH]c3ccccc23)C(=O)N[C@@H](Cc2ccc(O)cc2)C(=O)N[C@@H](CCCN)C(=O)N[C@H](C(=O)NCC(N)=O)CSCC(=O)N[C@@H](Cc2ccc(F)c(F)c2)C(=O)N(C)[C@@H](Cc2ccccc2)C(=O)N1C [Example 9310] ({CH2CO}-[Phe(3,4-F2)][NMeF][NMeNle][d(cisHyp)]DV[NMeF][Dab][d(cisHyp)]WY[Orn]CG-NH2; thioether N-13) | 1 to 9.9 nM
CCCC[C@H]1C(=O)N(C)[C@@H](C)C(=O)N[C@@H](CCCNC(=N)N)C(=O)NC(C(=O)NCC(N)=O)CSCC(=O)N[C@@H](Cc2ccc(O)cc2)C(=O)N(C)[C@@H](C)C(=O)N[C@@H](CC(N)=O)C(=O)N2CCC[C@H]2C(=O)N[C@@H](Cc2cnc[nH]2)C(=O)N[C@H](CO)C(=O)N2CCC[C@H]2C(=O)N[C@@H](Cc2c[nH]c3ccccc23)C(=O)N[C@@H](CO)C(=O)N[C@@H](Cc2c[nH]c3ccccc23)C(=O)N1C (stereo partly drawn) [Example 9117] ({CH2CO}-Y[NMeA]NPH[dS]PWSW[NMeNle][NMeA]R[ξC]G-NH2; thioether N-14) | 10 to 99.9 nM
CCCC[C@H]1C(=O)N2CCC[C@@H]2C(=O)N[C@@H](CC(=O)O)C(=O)N[C@@H](C)C(=O)N(C)[C@@H](Cc2ccccc2)C(=O)N[C@@H](Cc2ccc(O)cc2)C(=O)N(C)CC(=O)N[C@@H](Cc2c[nH]c3ccccc23)C(=O)N[C@@H](Cc2ccc(O)cc2)C(=O)N[C@@H](CC(C)C)C(=O)N[C@H](C(=O)NCC(N)=O)CSCC(=O)N[C@@H](Cc2ccccc2)C(=O)N(C)[C@@H](Cc2ccccc2)C(=O)N1C [Example 10044] ({CH2CO}-F[NMeF][NMeNle][dP]DA[NMeF]Y[Sar]WYLCG-NH2; thioether N-13) | 10 to 99.9 nM
